Test results reported in PubChem BioAssay (NCI).
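Assay format: 96-well plates, 48-hour exposure. GI50 marks 50% less growth. TGI denotes the concentration required for complete inhibition of growth.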

Experiments:
Experiment in all cases: NCI-60 cell line screen, 48 h
SW-620 colon = test system: SW-620 colon
786-0 renal = test system: 786-0 renal
NCI-H226 lung = test system: NCI-H226 lung
M14 melanoma = test system: M14 melanoma
SK-MEL-28 melanoma = test system: SK-MEL-28 melanoma
HCC-2998 colon = test system: HCC-2998 colon
SK-MEL-2 melanoma = test system: SK-MEL-2 melanoma
HT29 colon = test system: HT29 colon
OVCAR-5 ovarian = test system: OVCAR-5 ovarian
NCI/ADR-RES ovarian = test system: NCI/ADR-RES ovarian

SMILES | GI50 (SW-620 colon) [µM] | TGI (SW-620 colon) [µM] | GI50 (786-0 renal) [µM] | TGI (786-0 renal) [µM] | GI50 (NCI-H226 lung) [µM] | TGI (NCI-H226 lung) [µM] | GI50 (M14 melanoma) [µM] | TGI (M14 melanoma) [µM] | GI50 (SK-MEL-28 melanoma) [µM] | TGI (SK-MEL-28 melanoma) [µM] | GI50 (HCC-2998 colon) [µM] | TGI (HCC-2998 colon) [µM] | GI50 (SK-MEL-2 melanoma) [µM] | TGI (SK-MEL-2 melanoma) [µM] | GI50 (HT29 colon) [µM] | TGI (HT29 colon) [µM] | GI50 (OVCAR-5 ovarian) [µM] | TGI (OVCAR-5 ovarian) [µM] | GI50 (NCI/ADR-RES ovarian) [µM] | TGI (NCI/ADR-RES ovarian) [µM]
CCCCC#Cc1c(I)n(C)c(=O)[nH]c1=O | 1.66 | 3.05 | 16.5 | 30.1 | 14.4 | 27.4 | 2.13 | 4.36 | 1.75 | 3.13 | 1.58 | 2.93 | 1.93 | 4.06 | 2.27 | 5.08 | 6.38 | 19.2 | 6.48 | 19.5
S=C1Cc2c(-c3ccc(Br)cc3)cc(-c3ccccc3)nc2-c2ccccc2N1 | – | 9.15 | 0.632 | 1.79 | – | 8.54 | – | 11.8 | – | 27.3 | – | 11.3 | – | 20 | – | 5.81 | – | 14.4 | – | 4.43
C#C[C@@]1(O)[C@@H](CO)O[C@@H](n2cc(I)c3c(N)ncnc32)[C@@H]1O | 0.0581 | > 100 | 0.334 | 3.24 | 1.72 | > 100 | 0.49 | 9.51 | 1.96 | 11.4 | 0.243 | 3.01 | 0.239 | 1.76 | 0.0237 | 4.75 | 0.933 | > 100 | 0.0731 | 7.9
[N-]=[N+]=NCCCn1c2c(c3ccc([N+](=O)[O-])cc3c1=O)C(=O)c1cc(Br)ccc1-2 | – | – | 42.4 | > 100 | > 100 | > 100 | 3.02 | > 100 | > 100 | > 100 | > 100 | > 100 | > 100 | > 100 | > 100 | > 100 | > 100 | > 100 | > 100 | > 100
C1CN(c2nnc(N3CCC3)nn2)C1 | – | 59 | – | 49.5 | – | > 100 | – | 62.1 | – | > 68.3 | – | > 100 | – | > 89.5 | – | > 56.2 | – | > 46.4 | – | > 100
O=C(NC(=O)c1c(Cl)nc2sccn12)Nc1ccc(Cl)cc1 | – | > 100 | – | > 90.1 | – | 89.7 | – | > 100 | – | > 100 | – | > 93.6 | – | > 100 | – | > 100 | – | > 100 | – | > 100
CSc1nc2nc3c(nc2c(=O)n1C)C(=O)c1ccccc1C3=O | 0.252 | 0.738 | 0.402 | 1.46 | 0.193 | 0.461 | 0.0994 | 0.252 | 0.188 | 0.452 | 0.275 | 0.855 | 0.207 | 0.471 | 0.253 | 0.637 | 0.199 | 0.355 | 0.253 | 0.938
Cn1cc(C2=C(c3c[nH]c4ccccc34)C(=O)NC2=O)c2ccccc21 | > 4.92 | > 25 | 0.446 | > 25 | 1.99 | > 25 | 1.24 | > 25 | 7 | > 25 | 6.66 | > 25 | 1.09 | > 25 | 0.968 | > 25 | > 25 | > 25 | 3.33 | > 25
CNCCCNc1nc2ccccc2c2c(=O)c3cc(OC)ccc3sc12 | 1.72 | 3.28 | 1.66 | 3.17 | 1.8 | 3.9 | 1.99 | 3.82 | 1.74 | 3.15 | 1.82 | 3.49 | 2.04 | 4.44 | 1.72 | 3.56 | 1.67 | 3.08 | 1.82 | 3.64
C#Cc1cccc(Nc2nc(Cl)nc3cc(NC(=O)CCl)ccc23)c1 | 0.51 | 1.21 | 0.449 | 0.949 | 1.61 | 5.27 | 0.764 | 2.64 | 2.85 | 6.12 | 0.7 | 2.02 | 1.16 | 3.6 | 0.766 | 4.43 | 1.41 | 4.45 | 1.28 | 13.6
CS(=O)(=O)OCCCNCCCOS(C)(=O)=O | – | 6720 | – | 6310 | – | 5860 | – | 5050 | – | 7560 | – | 3670 | – | 3690 | – | 4480 | – | 6290 | – | 6040
CC(=O)N1CCN(CCNC(=O)n2cc(-c3ccncc3)c(-c3cc(O)cc(Cl)c3)n2)CC1 | 10.9 | 26.9 | 10.2 | 23.3 | 16.7 | 40.5 | 1.23 | 4.87 | 3.92 | 16.8 | 17.2 | 32.2 | 10.8 | 27 | 3.28 | 11.9 | 23.8 | 63.2 | 22.1 | > 100
CN1Cc2ccccc2/C=C\c2ccccc21 | – | > 100 | – | > 100 | – | > 100 | – | > 100 | – | > 100 | – | > 100 | – | 80.2 | – | > 100 | – | – | – | > 100
CS(=O)(=O)Nc1cccc(-c2ccc3ncnc(Nc4ccc(F)c(Cl)c4)c3c2)c1 | – | – | 1.71 | 3.76 | 1.8 | 5.33 | 1.76 | 3.66 | 2.28 | 7.2 | 1.94 | 3.84 | 1.98 | 4.15 | 1.64 | 3.73 | 1.89 | 6.66 | 2.03 | 7.54
CC(=O)OC12C=C(C)C(C(C)C1)C1C(=O)N(CCN3CCCCC3)C(=O)C12 (centres undefined) | > 50 | > 50 | > 50 | > 50 | > 50 | > 50 | > 50 | > 50 | – | – | > 50 | > 50 | > 50 | > 50 | > 50 | > 50 | > 50 | > 50 | > 50 | > 50
